Laboratory results as given in patent publication US8436189B2, “Heterocyclic alkanol derivatives” (Bayer Intellectual Property GmbH, priority 2010, dated 2013).

What was measured:
[1] = log P by HPLC on reversed-phase columns (C18), EEC Directive 79/831 Annex V.A8; type: physicochemical; conditions: method [a]: LC-MS, acidic range, pH 2.7, 0.1% aqueous formic acid / acetonitrile, gradient 10% to 95% acetonitrile
Protocol: The log P values were measured in accordance with EEC Directive 79/831 Annex V.A8 by HPLC (High Performance Liquid Chromatography) using reversed-phase columns (C18) by the following methods: [a] The LC-MS determination in the acidic range is effected at pH 2.7 with 0.1% aqueous formic acid and acetonitrile (contains 0.1% formic acid) as eluents; linear gradient from 10% acetonitrile to 95% acetonitrile.

Puccinia triticina = Puccinia triticina test (wheat)/protective; type: in vivo; conditions: protective spray, application rate 500 ppm, evaluation 8 days after inoculation, 0% = control, 100% = no infection
Protocol: (§1) Solvent: 49 parts by weight of N,N-dimethylacetamide
(§2) Emulsifier: 1 part by weight of alkylaryl polyglycol ether
(§3) To produce an appropriate active ingredient formulation, 1 part by weight of active ingredient is mixed with the specified amounts of solvent and emulsifier, and the concentrate is diluted with water to the desired concentration. To test for protective activity, young plants are sprayed with the formulation of active ingredient at the stated application rate. After the spray coating has dried on, the plants are sprayed with spores with a spore suspension of Puccinia triticina. The plants remain in an incubation cabin at 20° C. and 100% relative air humidity for 48 hours. The plants are placed in a greenhouse at a temperature of about 20° C. and a relative air humidity of about 80%. Evaluation follows 8 days after the inoculation. 0% means an efficacy which corresponds to that of the control, whereas an efficacy of 100% means that no infection is observed. In this test, the following inventive compounds, at an active ingredient concentration of 500 ppm, show an efficacy of 70% or more.

Leptosphaeria nodorum = Leptosphaeria nodorum test (wheat)/protective; type: in vivo; conditions: protective spray, application rate 500 ppm, evaluation 8 days after inoculation, 0% = control, 100% = no infection
Protocol: as §1, §2
as §3, with “of Leptosphaeria nodorum.” for “of Puccinia triticina.”, “about 22°” for “about 20°”

Uromyces appendiculatus = assay: Uromyces test (bean)/protective; type: in vivo; conditions: protective spray, application rate 100 ppm, evaluation 10 days after inoculation, 0% = control, 100% = no infection
Protocol: (§4) Solvent: 24.5 parts by weight of acetone • 24.5 parts by weight of dimethylacetamide Emulsifier: 1 part by weight of alkylaryl polyglycol ether To produce an appropriate active ingredient formulation, 1 part by weight of active ingredient is mixed with the specified amounts of solvent and emulsifier, and the concentrate is diluted with water to the desired concentration. To test for protective activity, young plants are sprayed with the active ingredient formulation at the stated application rate. After the spray coating has dried on, the plants are inoculated with an aqueous spore suspension of the bean rust pathogen Uromyces appendiculatus and then remain in an incubation cabin at about 20° C. and 100% relative air humidity for 1 day. The plants are then placed in the greenhouse at about 21° C. and a relative air humidity of about 90%. Evaluation follows 10 days after the inoculation. 0% means an efficacy which corresponds to that of the control, whereas an efficacy of 100% means that no infection is observed. In this test, the following inventive compounds, at an active ingredient concentration of 100 ppm, show an efficacy of 70% or more.

[2] = system: Blumeria graminis f sp. hordei; assay: Blumeria graminis test (barley)/protective; type: in vivo; conditions: protective spray, application rate 500 ppm, evaluation 7 days after inoculation, 0% = control, 100% = no infection
Protocol: Solvent: 49 parts by weight of N,N-dimethylacetamide Emulsifier: 1 part by weight of alkylaryl polyglycol ether To produce an appropriate active ingredient formulation, 1 part by weight of active ingredient is mixed with the specified amounts of solvent and emulsifier, and the concentrate is diluted with water to the desired concentration. To test for protective activity, young plants are sprayed with the formulation of active ingredient at the stated application rate. After the spray coating has dried on, the plants are dusted with spores of Blumeria graminis f sp. hordei. The plants are placed in a greenhouse at a temperature of about 18° C. and a relative air humidity of about 80% to promote the development of mildew pustules. Evaluation follows 7 days after the inoculation. 0% means an efficacy which corresponds to that of the control, whereas an efficacy of 100% means that no infection is observed. In this test, the following inventive compounds, at an active ingredient concentration of 500 ppm, show an efficacy of 70% or more.

Venturia inaequalis = assay: Venturia test (apple)/protective; type: in vivo; conditions: protective spray, application rate 100 ppm, evaluation 10 days after inoculation, 0% = control, 100% = no infection
Protocol: as §4, with “aqueous conidia” for “aqueous spore”, “the apple scab” for “the bean rust”, “pathogen Venturia inaequalis” for “pathogen Uromyces appendiculatus”, “in a” for “in the”

Row | Structure (SMILES) | logP [1] | also measured
1 | COc1cc(OC(F)(F)F)ccc1OCC(O)(c1cncs1)C(C)(C)C (stereo not drawn) [compound 14] | logP 3.70^[a]; [M + H]^+ = 392. | –
2 | CC(C)(C)C(O)(COc1ccc(SC(F)(F)F)c(F)c1)c1cncs1 (stereo not drawn) [compound 16] | logP 3.96^[a]; [M + H]^+ = 396. | –
3 | CC(C)(C)C(O)(COc1ccc(I)cc1Cl)c1cncs1 (stereo not drawn) [compound 5] | logP 4.14^[a]; [M + H]^+ = 438. | –
4 | CC1(C(O)(COc2cc(Br)cc(Br)c2)c2cncs2)CC1 (stereo not drawn) [compound 7] | logP 4.03^[a]; [M + H]^+ = 434 | –
5 | Cc1cc(OCC(O)(c2cncs2)C(C)(C)C)ccc1[S+](C)[O-] (stereo not drawn) [compound 18] | logP 1.90^[a]; [M + H]^+ = 354. | –
6 | CC(C)(C)C(O)(Cc1ccc(F)cc1F)c1cncs1 (stereo not drawn) [Compound No. 31] | – | chromatographic logP ([1]; reversed-phase HPLC column (C18)): 3.04
7 | Cc1cc(OCC(O)(c2cncs2)C(C)(C)C)ccc1S(C)(=O)=O (stereo not drawn) [compound 17] | logP 2.21^[a]; [M + H]^+ = 370. | –
8 | Cc1cc(S(=O)(=O)C(F)(F)F)ccc1OCC(O)(c1cncs1)C(C)(C)C (stereo not drawn) [compound 19] | logP 3.63^[a]; [M + H]^+ = 424. | –
9 | CC1(C(O)(COc2ccc(Br)c(C(F)(F)F)c2)c2cncs2)CC1 (stereo not drawn) [compound 13] | logP 3.70^[a]; [M + H]^+ = 422, 424 | –
10 | CC(C)(C)C(O)(COc1ccc(I)cc1F)c1cncs1 (stereo not drawn) [compound 1] | – | Efficacy (%) (Puccinia triticina): 100%; Efficacy (%) (Leptosphaeria nodorum): 100%; Efficacy (%) (Uromyces appendiculatus): 100%; Efficacy (%) [2]: 100%; Efficacy (%) (Venturia inaequalis): 97%
11 | COc1cc(S(=O)(=O)C(F)(F)F)ccc1OCC(O)(c1cncs1)C(C)(C)C (stereo not drawn) [compound 20] | logP 3.37^[a]; [M + H]^+ = 440. | –
12 | CC1(C(O)(COc2ccc(Br)c(F)c2)c2cncs2)CC1 (stereo not drawn) [compound 12] | logP 3.30^[a]; [M + H]^+ = 372, 374 | –
13 | Cc1cc(I)ccc1OCC(O)(c1cncs1)C1(C)CC1 (stereo not drawn) [compound 10] | logP 3.88^[a]; [M + H]^+ = 416 | –
14 | CC(C)(C)C(O)(COc1ccc(Br)cc1Cl)c1cncs1 (stereo not drawn) [Compound No. 2] | – | Efficacy (%) (Puccinia triticina): 95%; Efficacy (%) (Leptosphaeria nodorum): 92%; Efficacy (%) [2]: 100%
15 | CC(C)(C)C(O)(COc1ccc(Br)cc1F)c1cncs1 (stereo not drawn) [Compound No. 3] | – | Efficacy (%) (Puccinia triticina): 100%; Efficacy (%) (Leptosphaeria nodorum): 100%; Efficacy (%) [2]: 100%
16 | CC1(C(O)(COc2ccc(I)c([N+](=O)[O-])c2)c2cncs2)CC1 (stereo not drawn) [compound 15] | logP 3.11^[a]; [M + H]^+ = 447 | –

More lines, main results first:

Row | logP [1] | Structure (SMILES) | also measured
17 | logP 4.02^[a]; [M + H]^+ = 396. | CC(C)(C)C(O)(COc1ccc(OC(F)(F)F)c(Cl)c1)c1cncs1 (stereo not drawn) [compound 24] | –
18 | logP 3.32^[a]; [M + H]+ = 372, 374 | CC1(C(O)(COc2ccc(Br)cc2F)c2cncs2)CC1 (stereo not drawn) [compound 32] | –
19 | logP 4.31^[a]; [M + H]^+ = 412. | CC(C)(C)C(O)(COc1ccc(SC(F)(F)F)c(Cl)c1)c1cncs1 (stereo not drawn) [compound 21] | –
20 | logP 3.77^[a]; [M + H]^+ = 326. | Cc1cc(Cl)ccc1OCC(O)(c1cncs1)C(C)(C)C (stereo not drawn) [compound 25] | –
21 | logP 4.43^[a]; [M + H]^+ = 392. | Cc1cc(SC(F)(F)F)ccc1OCC(O)(c1cncs1)C(C)(C)C (stereo not drawn) [compound 23] | –
22 | logP 3.84^[a] | CC(C)(C)C(O)(COc1ccc(Cl)cc1Cl)c1cncs1 (stereo not drawn) [compound 33] | –
23 | logP 3.26^[a] | COc1cc(Br)ccc1OCC(O)(c1cncs1)C1(C)CC1 (stereo not drawn) [compound 35] | –
24 | logP 3.72^[a] | CC(C)(C)C(O)(COc1ccc(Cl)c(Cl)c1)c1cncs1 (stereo not drawn) [compound 39] | –
25 | logP 3.96^[a] | CC(C)(C)C(O)(COc1ccc(Cl)cc1C(F)(F)F)c1cncs1 (stereo not drawn) [compound 37] | –
26 | logP 3.37^[a]; [M + H]^+ = 330. | CC(C)(C)C(O)(COc1ccc(Cl)cc1F)c1cncs1 (stereo not drawn) [compound 26] | –
27 | logP 2.98^[a] | CC(C)(C)C(O)(COc1ccc(F)cc1F)c1cncs1 (stereo not drawn) [compound 34] | –
28 | logP 4.12^[a] | Cc1cc(OC(F)(F)F)ccc1OCC(O)(c1cncs1)C(C)(C)C (stereo not drawn) [compound 42] | –
29 | logP 3.74^[a]; [M + H]^+ = 326. | Cc1cc(OCC(O)(c2cncs2)C(C)(C)C)ccc1Cl (stereo not drawn) [compound 27] | –
30 | logP 4.10^[a]; [M + H]^+ = 396. | CC(C)(C)C(O)(COc1ccc(OC(F)(F)F)cc1Cl)c1cncs1 (stereo not drawn) [compound 29] | –
31 | logP 3.16^[a] | COc1cc(OCC(O)(c2cncs2)C2(C)CC2)ccc1Br (stereo not drawn) [compound 36] | –
32 | logP 4.12^[a] | CC(C)(C)C(O)(COc1ccc(OC(F)(F)F)c(Br)c1)c1cncs1 (stereo not drawn) [compound 41] | –
33 | logP 3.63^[a]; [M + H]^+ = 338. | CSc1ccc(OCC(O)(c2cncs2)C(C)(C)C)cc1C (stereo not drawn) [compound 28] | –
34 | logP 4.35^[a]; [M + H]^+ = 392. | Cc1cc(OCC(O)(c2cncs2)C(C)(C)C)ccc1SC(F)(F)F (stereo not drawn) [compound 22] | –
